Measurements published in US9725414B2, “Fungicidal N-bicycloalkyl and N-tricycloalkyl pyrazole-4-(thio)carboxamide derivatives” (priority 2011, dated 2017).
Where two headings read alike, the source gives them in different places.

Tests used:
[1] = test system: Pyrenophora teres; test: Example F: in vivo preventive test on Pyrenophora teres (barley), acetone/tween/DMSO preparation; conditions: grading 14 days after contamination
Method: In Vivo Preventive Test on Pyrenophora teres (Barley) […] Barley plants (“Plaisant” variety), sown in starter cups on a 50/50 peat soil pozzolana substrate and grown at 22° C., are treated at the 1 leaf stage (10 cm height) by spraying with the active ingredient prepared as described above. Plants, used as controls, are treated with the mixture of acetone/tween/DMSO/water not containing the active material. After 24 hours, the plants are contaminated by spraying the leaves with an aqueous suspension of Pyrenophora teres spores (12 000 spores per mL). The spores are collected from a 12-day-old culture. […] Grading (% of efficacy) is carried out 14 days after the contamination, in comparison with the control plants.

[2] = test system: Botrytis cinerea; test: Example P: in vivo preventive test on Botrytis cinerea (grey mould), gherkin plants; conditions: 500 ppm of active ingredient, grading 4 to 5 days after contamination
Method: In Vivo Preventive Test on Botrytis cinerea (Grey Mould) […] Gherkin plants (“Vert petit de Paris” variety), sown in starter cups on a 50/50 peat soil pozzolana substrate and grown at 24° C. are treated at the Z11 cotyledon stage by spraying with the active ingredient prepared as described above. Plants, used as controls, are treated with the mixture of acetone/tween/DMSO/water not containing the active material. After 24 hours, the plants are contaminated by spraying the cotyledons with an aqueous suspension of cryopreserved Botrytis cinerea spores (50 000 spores per mL). The spores are suspended in a nutrient solution composed of 10 g/L of PDB, 50 g/L of D-Fructose, 2 g/L of NH4NO3 and 1 g/L of KH2PO4. The contaminated gherkin plants are incubated at 17° C. and at 90% relative humidity. Grading (% of efficacy) is carried out 4 to 5 days after the contamination, in comparison with the control plants.

[3] = test system: Uromyces appendiculatus; test: Example Q: in vivo preventive test on Uromyces appendiculatus (bean rust); conditions: Uromyces appendiculatus on bean plants, 500 ppm of active ingredient, grading 11 days after contamination
Method: In Vivo Preventive Test on Uromyces appendiculatus (Bean Rust) […] Bean plants (“Saxa” variety), sown in starter cups on a 50/50 peat soil pozzolana substrate and grown at 24° C., are treated at the 2 leaf stage (9 cm height) by spraying with the active ingredient prepared as described above. Plants, used as controls, are treated with the mixture of acetone/tween/DMSO/water not containing the active material. After 24 hours, the plants are contaminated by spraying the leaves with an aqueous suspension of Uromyces appendiculatus spores (150 000 spores per mL). The spores are collected from infected plants and are suspended in water containing 2.5 mL/L of Tween 80 at 10%. […] Grading (% of efficacy) is carried out 11 days after the contamination, in comparison with the control plants.

[4] = test system: Alternaria brassicae; test: Example D: in vivo preventive test on Alternaria brassicae (leaf spot on radish); conditions: grading 6 days after contamination
Method: In Vivo Preventive Test on Alternaria brassicae (Leaf Spot on Radish) […] Radish plants (“Pernod Clair” variety), sown in starter cups on a 50/50 peat soil pozzolana substrate and grown at 17° C., are treated at the cotyledon stage by spraying with the active ingredient prepared as described above. Plants, used as controls, are treated with the mixture of acetone/tween/DMSO/water not containing the active material. After 24 hours, the plants are contaminated by spraying the cotyledons with an aqueous suspension of Alternaria brassicae spores (50 000 spores per mL). The spores are collected from a 15-day-old culture. The contaminated radish plants are incubated at 20° C. and at 100% relative humidity. Grading (% of efficacy) is carried out 6 days after the contamination, in comparison with the control plants.

[5] = log P by HPLC on reversed-phase column (C 18), EEC Directive 79831 Annex V.A8; type: physicochemical
Method: In table 1, the log P values were determined in accordance with EEC Directive 79831 Annex V.A8 by HPLC (High Performance Liquid Chromatography) on a reversed-phase column (C 18), using the method described below: Temperature: 40° C.; Mobile phases: 0.1% aqueous formic acid and acetonitrile; linear gradient from 10% acetonitrile to 90% acetonitrile. Calibration was carried out using unbranched alkan-2-ones (comprising 3 to 16 carbon atoms) with known log P values (determination of the log P values by the retention times using linear interpolation between two successive alkanones). lambda-max-values were determined using UV-spectra from 200 nm to 400 nm and the peak values of the chromatographic signals.

[6] = test system: Sphaerotheca fuliginea; test: Example B: in vivo preventive test on Sphaerotheca fuliginea (powdery mildew on cucurbits), gherkin plants; conditions: 500 ppm of active ingredient, grading 12 days after contamination
Method: In Vivo Preventive Test on Sphaerotheca fuliginea (Powdery Mildew on Cucurbits) […] Gherkin plants (“Vert petit de Paris” variety), sown in starter cups on a 50/50 peat soil-pozzolana substrate and grown at 24° C. are treated at the Z11 cotyledon stage by spraying with the active ingredient prepared as described above. Plants, used as controls, are treated with the mixture of acetone/tween/DMSO/water not containing the active material. After 24 hours, the plants are contaminated by spraying the cotyledons with an aqueous suspension of Sphaerotheca fuliginea spores (100 000 spores per mL). The spores are collected from infected plants.

[7] = test system: Puccinia recondita; test: Example M: in vivo preventive test on Puccinia recondita (brown rust on wheat); conditions: 500 ppm of active ingredient, grading 12 days after contamination
Method: In Vivo Preventive Test on Puccinia recondita (Brown Rust on Wheat) […] Wheat plants (“Scipion” variety), sown in starter cups on a 50/50 peat soil pozzolana substrate and grown at 22° C., are treated at the 1 leaf stage (10 cm height) by spraying with the active ingredient prepared as described above. Plants, used as controls, are treated with the mixture of acetone/tween/DMSO/water not containing the active material. After 24 hours, the plants are contaminated by spraying the leaves with an aqueous suspension of Puccinia recondite spores (100 000 spores per mL). The spores are collected from an infected plant and are suspended in water containing 2.5 mL/L of Tween 80 at 10%. […] Grading (% of efficacy) is carried out 12 days after the contamination, in comparison with the control plants.

[8] = test system: Septoria tritici; test: Example I: in vivo preventive test on Septoria tritici (wheat), acetone/tween/DMSO preparation; conditions: 500 ppm of active ingredient, grading 24 days after contamination
Method: In Vivo Preventive Test on Septoria tritici (Wheat) […] Wheat plants (“Scipion” variety), sown in starter cups on a 50/50 peat soil pozzolana substrate and grown at 22° C., are treated at the 1 leaf stage (10 cm height) by spraying with the active ingredient prepared as described above. Plants, used as controls, are treated with the mixture of acetone/tween/DMSO/water not containing the active material. After 24 hours, the plants are contaminated by spraying the leaves with an aqueous suspension of cryopreserved Septoria tritici spores (500 000 spores per mL). The contaminated wheat plants are incubated for 72 hours at 18° C. and at 100% relative humidity, and then for 21 days at 90% relative humidity. Grading (% of efficacy) is carried out 24 days after the contamination, in comparison with the control plants.

[9] = test system: Alternaria solani; test: Example C: in vivo preventive test on Alternaria solani (tomato); conditions: 500 ppm of active ingredient, evaluated 7 days after inoculation
Method: (§1) In Vivo Preventive Test on Alternaria solani (Tomato) Solvent: 49 parts by weight of N,N-dimethylformamide Emulsifier: 1 part by weight of alkylarylpolyglycolether To produce a suitable preparation of active compound, 1 part by weight of active compound is mixed with the stated amounts of solvent and emulsifier, and the concentrate is diluted with water to the desired concentration. To test for preventive activity, young plants are sprayed with the preparation of active compound at the stated rate of application. One day after this treatment, the plants are inoculated with an aqueous spore suspension of Alternaria solani. The plants remain for one day in an incubation cabinet at approximately 22° C. and a relative atmospheric humidity of 100%. Then the plants are placed in an incubation cabinet at approximately 20° C. and a relative atmospheric humidity of 96%.

[10] = test system: Pyrenophora teres; test: Example E: in vivo preventive test on Pyrenophora teres (barley), DMF/emulsifier preparation; conditions: 500 ppm of active ingredient, evaluated 7-9 days after inoculation
Method: as §1, with “Pyrenophora teres (Barley)” for “Alternaria solani (Tomato)”, “alkylaryl polyglycol ether” for “alkylarylpolyglycolether”, “Pyrenophora teres.” for “Alternaria solani.”, “48 hours” for “one day”, “at” for “at approximately”, “100%.” for “100%. Then the plants are placed in an incubation cabinet at approximately 20° C. and a relative atmospheric humidity of 96%.”

[11] = 500 ppm of active ingredient, barley
[12] = HPLC reversed-phase C 18, 40° C., 0.1% aqueous formic acid and acetonitrile gradient, several values = mixture of two or more isomers
[13] = Pyrenophora teres on barley, 100 ppm of active ingredient

Structure (SMILES) | logP [5, 12] | logP [5] | Efficacy [1, 11] | Efficacy [2] | Efficacy [3] | Efficacy ([4]; 500 ppm of active ingredient) | Efficacy [6] | Efficacy [7] | Efficacy [8] | Efficacy [1, 13] | Efficacy ([4]; 100 ppm of active ingredient) | Efficacy [9] | Efficacy [10]
CC1C(NC(=O)c2c(C(F)F)nn(C)c2F)CC2CC1C2(C)C (centres unmarked) [Example 49] | 3.61 |  | 88% | 98% |  | 96% |  |  |  |  |  |  | 
Cn1nc(C(F)F)c(C(=O)N(C2CC2)C2CCC3CCCC32)c1F (centres unmarked) [Example 4] | 3.55 |  | 100% | 80% |  | 100% |  | 78% |  |  |  |  | 
Cn1nc(C(F)F)c(C(=O)N(CC2CCCC3CCCC32)C2CC2)c1F (mixture of isomers) [Example 60] |  |  |  |  |  |  |  |  |  | 98% | 100% |  | 
Cn1cc(C(=O)N(CC2CCCC3CCCC32)C2CC2)c(C(F)F)n1 (mixture of isomers) [Example 61] |  |  |  |  |  |  |  |  |  | 100% | 92% |  | 
CN(C(=O)c1cn(C)nc1C(F)F)C1CCC2CCCCC21 (centres unmarked) [Example 9] |  | 2.88 |  |  |  |  |  |  |  | 75% | 100% |  | 
Cn1cc(C(=O)N(CC2(Cc3ccccc3)CC3CCC2C3)C2CC2)c(C(F)F)n1 (centres unmarked) [Example 70] | 4.32 |  | 79% | 100% | 88% | 91% | 98% |  | 96% |  |  |  | 
Cn1cc(C(=O)NCC2C3CC4CC(C3)CC2C4)c(C(F)F)n1 (centres unmarked) [Example 92] | 3.27 |  |  | 100% |  | 96% |  |  | 83% |  |  |  | 
Cn1nc(C(F)F)c(C(=O)N(C2CC2)C2CCC3CCCC32)c1F (centres unmarked) [Example 5] | 3.65 |  | 97% |  | 100% | 100% | 98% | 100% | 100% |  |  |  | 
Cn1nc(C(F)F)c(C(=O)N(C2CC2)C2CCC3CCCC3C2)c1F (mixture of isomers) [Example 22] |  |  |  |  | 100% | 93% | 100% | 100% | 88% |  |  | 100% | 100%
CC(C1CC2C=CC1C2)N(C(=O)c1c(C(F)F)nn(C)c1F)C1CC1 (mixture of isomers) [Example 101] |  |  | 100% | 98% |  | 92% | 100% |  | 100% |  |  |  | 

The next lines start with results.

logP [5, 12] | logP [5] | Structure (SMILES) | Efficacy [1, 11] | Efficacy [2] | Efficacy [3] | Efficacy ([4]; 500 ppm of active ingredient) | Efficacy [6] | Efficacy [7] | Efficacy [8] | Efficacy [1, 13] | Efficacy ([4]; 100 ppm of active ingredient) | Efficacy [9] | Efficacy [10]
3.02 |  | Cn1cc(C(=O)N(C2CC2)C2CCC3CCCC32)c(C(F)F)n1 (centres unmarked) [Example 6] | 100% | 100% | 77% | 100% | 100% |  |  |  |  |  | 
3.72 |  | CON(C(=O)c1c(C(F)F)nn(C)c1F)C1CCC2CCCCC21 (centres unmarked) [Example 10] | 93% |  | 100% | 100% | 100% | 100% | 93% |  |  |  | 
3.68 |  | Cn1nc(C(F)F)c(C(=O)NCC2C3CC4CC(C3)CC2C4)c1F (centres unmarked) [Example 90] | 81% | 100% |  | 90% |  |  | 92% |  |  |  | 
5.08 |  | Cn1nc(C(F)F)c(C(=O)N(CC2CCCC3CCCCC32)C2CC2)c1Cl (centres unmarked) [Example 67] | 98% |  | 87% | 97% | 100% | 97% | 94% |  |  |  | 
 | 3.35 | CN(C(=O)c1c(C(F)F)nn(C)c1F)C1CCC2CCCCC21 (centres unmarked) [Example 8] |  |  |  |  |  |  |  | 98% | 100% |  | 
3.19 |  | Cn1cc(C(=O)N(C2CC2)C2CCC3CCCC32)c(C(F)F)n1 (centres unmarked) [Example 7] | 100% |  | 94% | 80% | 100% | 98% | 97% |  |  |  | 
3.90 |  | Cn1nc(C(F)F)c(C(=O)NCC2C3CC4CC(C3)CC2C4)c1Cl (centres unmarked) [Example 91] | 75% | 99% |  | 96% |  |  |  |  |  |  | 
3.61 |  | CC1C(NC(=O)c2c(C(F)F)nn(C)c2F)CC2CC1C2(C)C (centres unmarked) [Example 50] | 88% | 99% |  | 80% | 90% |  | 97% |  |  |  | 
4.68 |  | Cn1nc(C(F)F)c(C(=O)N(C2CC2)C2CCCC3CCCCC32)c1Cl (centres unmarked) [Example 32] | 97% |  | 89% | 100% | 100% | 98% | 80% |  |  |  | 
